From article PMC7546441 (Nature chemical biology, 2019) come the findings set out here.

One assay deals with XenA (Pseudomonas putida, UniProt Q9R9V9). In words: initial rate, absorbance at […] nm. The format is biochemical. The conditions noted are these: 0.2 mM NMNH, 5 mM ketoisophorone, 200 mM phosphate pH 7.5, 37 °C.
A further assay deals with Bs GDH (Bacillus subtilis, UniProt P12310). In words: full steady-state kinetics, ordered bi-bi fit, […] nm. Type of assay: biochemical. The conditions noted are these: cofactor and glucose varied, 35 mM Tris-HCl pH 8.0, 25 °C.
Chain of Bs GDH (P12310 whole entry): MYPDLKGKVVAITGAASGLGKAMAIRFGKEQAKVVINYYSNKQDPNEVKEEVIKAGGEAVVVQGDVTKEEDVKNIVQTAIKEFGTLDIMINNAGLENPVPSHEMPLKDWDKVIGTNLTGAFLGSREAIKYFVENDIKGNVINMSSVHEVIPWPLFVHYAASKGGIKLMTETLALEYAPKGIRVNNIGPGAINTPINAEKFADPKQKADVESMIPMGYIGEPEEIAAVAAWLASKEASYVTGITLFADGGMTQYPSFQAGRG

The structures appear in SMILES notation.

In the case of `NC(=O)C1=CN([C@@H]2O[C@H](COP(=O)(O)O)[C@@H](O)[C@H]2O)C=CC1` [NMNH], the “initial rate, absorbance at 340 nm” value on XenA was “reduced NMN^+ (NMNH) was also well accepted by XenA”. In the case of `OC[C@H]1OC(O)[C@H](O)[C@@H](O)[C@@H]1O` (stereo partly drawn) [D-glucose], the KB entry at Bs GDH was “KA and KB are Michaelis constants for cofactor and substrate, respectively”.
